Experimental data from patent publication US20240082212A1, “USE OF MDMA FOR TREATMENT OF STRESS-RELATED DISORDERS” (priority 2022, published 2024).

Key:
cortical neurons = test: Neurite outgrowth in embryonic rat cortical neuron cultures; format: cell-based; settings: any tested concentration (0.001 to 10000 nM), 3 days, vs vehicle
From the text: Female Wistar rats of 17 days gestation were killed by cervical dislocation and the fetuses (typically 6 to 8 in number) were removed from the uteri. Fetal brains were placed in ice-cold medium of Leibovitz (L15, Gibco, France). Cortex was dissected and meninges were carefully removed. The cortical neurons were dissociated by trypsinization (trypsin-EDTA, Gibco) in the presence of DNAse I (Roche, France). The reaction was stopped by addition of Dulbecco's Modified Eagle Medium (DMEM; Gibco) with 10% of fetal bovine serum (FBS; Gibco). The suspension was triturated with a 10-ml pipette and a 21-gauge needle syringe and centrifuged. The pellet of dissociated cells was resuspended in a medium consisting of Neurobasal (Gibco) supplemented with 2% B27 supplement (Gibco), 0.5 mM L-Glutamine (Gibco), and an antibiotic-antimycotic mixture. Viable cells were counted in a Neubauer cytometer and cells were seeded in 96-well plates (Costar) precoated with poly-L-lysine at 10,000 cells/well. […] Stock solutions were prepared in sterile water at 10 mM and stored at −20° C. until used. Further dilutions were prepared in culture in the medium on the day of the treatment. 0.1% Sterile water was present in all tested conditions.
The experimental protocol was performed in two independent cultures (i.e., from two different pregnant rats). For each culture, each condition was tested in sextuplet (6 wells per condition per culture for a total of 12 wells per condition). […] After three days of plating and compound treatment (Day 3), cultures were fixed with paraformaldehyde in phosphate buffered saline at 4° C. (PBS, 4%, Sigma). All subsequent steps were performed at room temperature. Cells were successively permeabilized for 30 minutes using 0.1% triton, saturated with PBS containing 3% bovine serum albumin (BSA) and incubated for 1 hour with anti-beta III tubulin antibody (T5168, Sigma). […] Finally, nuclei were stained with 4′-6-diamidino-2-phenylindole (DAPI). After rinsing the cells with PBS, the plate was imaged and neurite networks were examined and analyzed using a High-Content Screening platform (CellInsight CXS, Thermo Scientific) with integrated Photometrics high-resolution fluorescent camera, Olympus objective (10×) and HCS Studio Cell Analysis Software. Approximately 2,000 neurons per well were analyzed using a validated cortex neuron outgrowth algorithm that utilizes parameters optimized for analysis of embryonic rat cortical neuron cultures. The HCS Studio Cell Analysis Software output included values for neurite total count (#), neurite total length (μm) and total number of branch points (#) for each of the 6 wells per culture. The evaluation of neurite outgrowth was performed using the average number of neurites per neuron (#), the average of total neurite length per neuron (μm) and the average number of branch points per neuron (#) across 12 wells. Data also was transformed to percent (%) of the average vehicle control value. Results were expressed as mean (±s.e.m.) of the transformed (% of vehicle control) data. Statistical analyses were performed on transformed percent of the average vehicle control data for each measure for each test article using one-way analysis of variance (Anova, StatView). Where applicable, Dunnett's test was used for multiple pairwise comparisons to the negative control (vehicle) condition. […] The level of significance was set at p value less than or equal to 0.05 (*p<0.05).

Serotonin 5-HT2B = Serotonin 5-HT2B (Homo sapiens, UniProt P41595); test: Eurofins Panlabs radioligand binding panel, serotonin 5-HT2B; settings: 10 uM
Serotonin 5-HT2B, sequence (P41595 whole entry): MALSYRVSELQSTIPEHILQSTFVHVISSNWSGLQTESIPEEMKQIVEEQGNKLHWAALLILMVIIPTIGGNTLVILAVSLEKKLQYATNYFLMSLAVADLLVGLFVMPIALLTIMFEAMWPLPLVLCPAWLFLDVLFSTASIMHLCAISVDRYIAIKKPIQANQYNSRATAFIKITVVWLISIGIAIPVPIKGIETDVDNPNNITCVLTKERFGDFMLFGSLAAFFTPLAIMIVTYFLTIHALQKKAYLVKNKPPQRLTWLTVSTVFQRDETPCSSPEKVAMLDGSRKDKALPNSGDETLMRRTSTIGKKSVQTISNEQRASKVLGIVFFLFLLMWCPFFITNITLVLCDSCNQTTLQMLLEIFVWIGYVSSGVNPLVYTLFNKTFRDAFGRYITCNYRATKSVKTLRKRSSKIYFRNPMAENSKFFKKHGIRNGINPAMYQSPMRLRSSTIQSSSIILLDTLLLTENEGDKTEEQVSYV

Adrenergic α2A = molecular target: T1, Adrenergic α2A (Homo sapiens, UniProt P08913); test: Eurofins Panlabs radioligand binding panel, adrenergic α2A; settings: read-out: % inhibition of binding or activity
T1 sequence (P08913 1-465): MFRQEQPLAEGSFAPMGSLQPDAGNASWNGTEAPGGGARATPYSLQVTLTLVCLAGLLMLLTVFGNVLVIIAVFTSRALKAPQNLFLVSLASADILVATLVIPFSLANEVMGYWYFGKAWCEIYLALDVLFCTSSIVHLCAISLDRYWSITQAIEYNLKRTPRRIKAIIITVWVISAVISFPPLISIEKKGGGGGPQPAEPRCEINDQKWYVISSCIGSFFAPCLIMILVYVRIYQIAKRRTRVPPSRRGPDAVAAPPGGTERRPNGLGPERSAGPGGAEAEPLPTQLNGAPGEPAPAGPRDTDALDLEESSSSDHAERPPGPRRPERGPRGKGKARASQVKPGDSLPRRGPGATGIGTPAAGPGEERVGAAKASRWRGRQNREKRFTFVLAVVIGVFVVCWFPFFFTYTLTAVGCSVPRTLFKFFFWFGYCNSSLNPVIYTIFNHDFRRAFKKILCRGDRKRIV
Method: Each of the compounds was evaluated for binding to 87 different targets as part of a panel (Eurofins Panlabs, Taiwan, China). Each compound was tested at a single concentration of […]. The panel included mostly G-protein-couple receptors, ion channels, enzymes, transporters and nuclear receptors, expressed in the central nervous system, cardiovascular, respiratory, gastrointestinal and renal systems. A limited number of targets were of pig, rat or guinea pig origin. Targets were expressed in human recombinant cells lines, rat brain or spinal cord, guinea pig brain or pig heart. Methods were adapted from the scientific literature to maximize reliability and reproducibility. Reference standards were run as an integral part of each assay to ensure validity of the results obtained (available online at the eurofins website for the safety screen 87 panel).

C57BL/6J mice = test: Head twitch response (HTR); format: in vivo, mouse; settings: 30 minutes after injection
Method: Male C57BL/6J mice at 6-8 weeks of age were purchased from Jackson Laboratories and housed four per cage in a climate and humidity-controlled room in a vivarium at the University of California, San Diego. The room operated on a reverse light cycle (lights on at 1900 h, off at 0700 h) with food and water available ad libitum, except during testing. All testing was performed during 1000 h and 1800 h. After a minimum of 1 week acclimation to the housing facility, mice were anesthetized using a mixture of ketamine (100 mg/kg IP) and xylazine (10 mg/kg IP). Under deep anesthesia, an incision was made in the scalp and a small neodymium magnet (4.57 mm×4.57 mm×2.03 mm) was attached to the cranium using cyanoacrylate and dental cement. After at least a 2-week recovery period, the mouse was removed from the home cage and injected intraperitoneally with the test article or vehicle (0.9% sterile saline). Immediately, the mouse was placed in a glass cylinder surrounded by a magnetometer coil and the head twitch response (HTR) was assessed for 30 minutes (Halberstadt and Geyer, 2013). The output of the coil was recorded using a Powerlab/8SP with LabChart v.7.3.2 (ADInstruments). Coil voltage was amplified, low-pass filtered (2-10 kHz cut-off frequency) to remove interference, digitized and sampled at 20 kHz. Head twitches were identified using a validated technique based on artificial intelligence (Halberstadt, 2020). Events in the recordings were transformed into a visual representation in the time-frequency domain and deep features were extracted using the pretrained convolutional neural network ResNet-50, and the images were subsequently classified using a Support Vector Machine algorithm.
Test articles (R,S-MDA, R(−)-MDA, S-(+)MDA), R,S-MDMA, R(−)-MDMA and S(+)-MDMA) were supplied by the NIDA Drug Supply Program as neat powders. Racemic MDA and MDMA and their enantiomers were dissolved in saline and injected IP at a volume of 5 mL/kg. Each dose was calculated based on the salt form of the compounds. For each treatment condition, six groups of mice (n=5-6/group) were treated with vehicle or the test drug (0.1, 0.3, 1, 3, or 10 mg/kg) and HTR assessed for 30 minutes immediately following injections. To avoid carryover effects, each treatment condition was performed at least seven days apart. Total number of mice used for the experiment was 63.

[1] = Rat plasma pharmacokinetics after cumulative (QID) SC injections; settings: for Cmax: metabolite after QID SC parent (R-MDA after R-MDMA, S-MDA after S-MDMA, total MDA after Rac-MDMA)
Serotonin 5-HT1A = molecular target: T2, Serotonin 5-HT1A (Homo sapiens, UniProt P08908); test: Eurofins Panlabs radioligand binding panel, serotonin 5-HT1A; settings: 10 uM
T2 sequence (P08908 1-422): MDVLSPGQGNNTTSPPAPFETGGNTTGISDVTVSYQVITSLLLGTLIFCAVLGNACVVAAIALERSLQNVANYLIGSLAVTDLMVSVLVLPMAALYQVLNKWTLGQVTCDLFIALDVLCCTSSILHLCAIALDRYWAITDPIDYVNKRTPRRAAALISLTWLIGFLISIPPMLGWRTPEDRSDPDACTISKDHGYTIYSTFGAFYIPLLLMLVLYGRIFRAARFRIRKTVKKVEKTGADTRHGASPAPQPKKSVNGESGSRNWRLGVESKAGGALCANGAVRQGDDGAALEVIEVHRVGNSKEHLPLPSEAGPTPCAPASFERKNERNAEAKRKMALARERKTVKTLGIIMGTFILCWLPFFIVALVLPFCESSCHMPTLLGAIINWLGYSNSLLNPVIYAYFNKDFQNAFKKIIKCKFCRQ

[2] = male rat plasma, metabolite after QID SC parent, total 10 mg/kg/day
[3] = male rat plasma, metabolite after QID SC parent, total 20 mg/kg/day

Compound: CC(N)Cc1ccc2c(c1)OCO2 (racemic) [Racemic MDA, 3,4-methylenedioxyamphetamine]
- neurite number (#) (cortical neurons): did not significantly alter
- neurite total length (μm) (cortical neurons): did not significantly alter
- total number of branch points (#) (cortical neurons): did not significantly alter
- inhibition at 10 µM (Serotonin 5-HT2B; read-out: % inhibition of binding or activity): 89%
- inhibition at 10 µM (Adrenergic α2A): 53%
- head twitch response (HTR) compared to control (vehicle) (C57BL/6J mice; 3 mg/kg IP): increased HTR

Compound: C[C@@H](N)Cc1ccc2c(c1)OCO2 [R-MDA, R(−)-MDA]
- neurite number (#) (cortical neurons): did not significantly alter
- neurite total length (μm) (cortical neurons): did not significantly alter
- total number of branch points (#) (cortical neurons): did not significantly alter
- % inhibition of binding or activity (Serotonin 5-HT2B): 88%
- dose dependence of Cmax and AUC0-27 hr ([1]; dose increase from 10 to 20 mg/kg/day of the dosed test article, QID SC): approximately dose proportional manner
- Cmax ([1]; male rat plasma, total 10 mg/kg/day): 127 ng/mL
- Cmax ([1]; male rat plasma, total 20 mg/kg/day): 272 ng/mL
- AUC0-27 hr [1, 2]: 813 ng·h/mL
- AUC0-27 hr/Dose [1, 2]: 81.3 *kg*ng/mL/mg
- AUCTlast [1, 2]: 716 ng·h/mL
- Cmax/Dose [1, 2]: 12.7 kg·ng/mL/mg
- Tlast [1, 2]: 11 h
- Tmax [1, 2]: 5 h
- AUC0-27 hr [1, 3]: 2410 ng·h/mL
- AUC0-27 hr/Dose [1, 3]: 121 *kg*ng/mL/mg
- AUCTlast [1, 3]: 1810 ng·h/mL
- Cmax/Dose [1, 3]: 13.6 kg·ng/mL/mg
- T1/2 [1, 3]: 2.67 h
- Tlast [1, 3]: 11 h
- Tmax [1, 3]: 5 h
- % inhibition of binding or activity (Serotonin 5-HT1A): 50%
- head twitch response (HTR) compared to control (vehicle) (C57BL/6J mice; 1 mg/kg IP): elicited an increase in HTR
- head twitch response (HTR) compared to control (vehicle) (C57BL/6J mice; 3 mg/kg IP): elicited an increase in HTR
- head twitch response (HTR) compared to control (vehicle) (C57BL/6J mice; 10 mg/kg IP): elicited an increase in HTR
